Experimental data: paper PMC4102788, “Linking off-target kinase pharmacology to the differential cellular effects observed among PARP inhibitors” (Oncotarget, 2014)
“Also recorded” adds a separate entry of the source.

Assays:
S6K1 kinase = molecular target: S6K1 kinase; set-up: method as in PMID 24072592; conditions: cited from earlier work
human DYRK1A kinase = molecular target: T1, human DYRK1A kinase (Homo sapiens, UniProt Q13627); test: Human DYRK1A kinase in vitro inhibition assay (Cerep, LANCE); type: biochemical
T1 construct: purchased Cerep (CRO that ran the assay) 2781 (781-dyrk1a)
Description: Evaluation of the effects of compounds on the activity of the human DYRK1a
[sequence]-amide (MBP) using a human recombinant enzyme and the
mixture is incubated for 30 min at room temperature. For control basal measurements,

human CDC2/CDK1 = molecular target: T2, human CDC2/CDK1 (Homo sapiens, UniProt P06493); test: Human CDK1 kinase in vitro inhibition assay (Cerep, LANCE); type: biochemical
T2 construct: purchased Cerep (CRO that ran the assay) 2875 (781-cdc2); host or cells: insect cells
T2 sequence (P06493 whole entry): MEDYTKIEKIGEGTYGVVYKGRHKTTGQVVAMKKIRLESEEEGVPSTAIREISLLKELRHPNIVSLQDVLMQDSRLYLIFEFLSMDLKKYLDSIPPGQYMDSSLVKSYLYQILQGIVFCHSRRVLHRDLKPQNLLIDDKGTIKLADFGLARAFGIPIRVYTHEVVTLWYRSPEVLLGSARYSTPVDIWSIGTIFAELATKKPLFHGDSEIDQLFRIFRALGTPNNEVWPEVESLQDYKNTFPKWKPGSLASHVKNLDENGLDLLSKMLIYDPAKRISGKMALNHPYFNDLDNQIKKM
T2 sequence (P14635 whole entry partner): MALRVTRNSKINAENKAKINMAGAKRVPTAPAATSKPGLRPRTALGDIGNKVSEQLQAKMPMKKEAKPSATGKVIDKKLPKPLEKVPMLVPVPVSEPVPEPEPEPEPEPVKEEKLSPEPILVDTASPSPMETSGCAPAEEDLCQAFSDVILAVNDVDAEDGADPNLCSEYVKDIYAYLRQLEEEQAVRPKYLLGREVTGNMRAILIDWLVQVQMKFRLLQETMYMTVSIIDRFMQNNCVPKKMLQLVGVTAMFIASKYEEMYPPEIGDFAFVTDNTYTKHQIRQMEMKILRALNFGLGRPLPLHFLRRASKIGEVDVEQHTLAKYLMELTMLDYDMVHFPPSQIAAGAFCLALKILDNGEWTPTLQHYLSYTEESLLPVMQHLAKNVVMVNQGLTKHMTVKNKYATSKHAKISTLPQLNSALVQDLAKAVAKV
Description: All details for the CDC2/CDK1 in vitro assay can be consulted in the Cerep
Catalogue available online under references 2875 (781-cdc2):
http://www.cerep.fr/cerep/users/pages/catalog/Affiche_CondExp_Test.asp?test=2875
CDC2/CDK1 quantified by measuring the phosphorylation of
the substrate Ulight-[sequence]-amide (MBP) using a human
recombinant enzyme expressed in insect cells and the LANCE® detection method.
The test compound, reference compound or water (control) are mixed with the enzyme (2.28 ng) in a buffer containing 40 mM Hepes/Tris(pH 7.4), 0.8 mM EGTA/Tris, 8 mM MgCl2, 1.6 mM DTT and 0.008% Tween 20. Thereafter, the reaction is initiated by adding 100 nM of the
substrate Ulight-[sequence]-amide (MBP) and 10 µM ATP, and the
mixture is incubated for 15 min at room temperature. […] After 60 more min, the fluorescence transfer is
The IC50 values (concentration causing a half-maximal inhibition of control specific activity) and Hill coefficients (nH) were determined by non-linear regression analysis of the inhibition curves generated with mean replicate values using Hill equation curve fitting (Y = D + [(A – D)/(1 + (C/C50)nH)], where Y = specific activity, D = minimum specific activity, A = maximum specific activity, C = compound concentration, C50 = IC50, and nH = slope factor).

16 protein kinases = test: Focused in vitro kinase screening across the panel of 16 protein kinases; type: biochemical, human; conditions: panel of 16 kinases
Description: From these kinases, we selected the 11 that were available for screening at Cerep (www.cerep.fr). The selection included members of three different kinase groups distantly related by sequence (all having less than 20% sequence identity with PIM1), namely, CAMK (PIM2, STK17A), CMGC (DYRK1A, CDK9, HIPK2, CK2, and CDC7) and AGC (AKT3, PRKCG, PRKCI, and PKA). To this list, we added also two kinases belonging to the TK group that have been identified as biomarkers of PARP drug sensitivity and shared ligands with PIM1, namely, ABL and ALK. […] In the end, a total of 16 protein kinases were selected for a focused in vitro screening of PARP inhibitors.
(§1) Rucaparib, veliparib and olaparib were purchased from Selleckchem. Kinase in vitro assays were perfomed at Cerep (www.cerep.fr) by measuring the phosphorylation of appropriate peptide substrates by human recombinant enzymes and using FRET as a detection method (a detailed description of each kinase assay is available in online supplementary data).

STAT3 phosphorilation = system: STAT3 phosphorilation; set-up: method as in PMID 22678161; conditions: at 5 µM; cited from earlier work
PARP-1 = molecular target: PARP-1; set-up: method as in PMID 21948594, PMID 21336281; conditions: ChEMBL; cited from earlier work
human PIM1 kinase = molecular target: T3, human PIM1 kinase (Homo sapiens, UniProt P11309); test: Human Pim1 kinase in vitro inhibition assay (Cerep, LANCE/FRET); type: biochemical; conditions: human recombinant enzyme, 30 µM ATP
T3 construct: purchased Cerep (CRO that ran the assay) 2919 (745-P1); host or cells: insect cells
T3 sequence (P11309 whole entry): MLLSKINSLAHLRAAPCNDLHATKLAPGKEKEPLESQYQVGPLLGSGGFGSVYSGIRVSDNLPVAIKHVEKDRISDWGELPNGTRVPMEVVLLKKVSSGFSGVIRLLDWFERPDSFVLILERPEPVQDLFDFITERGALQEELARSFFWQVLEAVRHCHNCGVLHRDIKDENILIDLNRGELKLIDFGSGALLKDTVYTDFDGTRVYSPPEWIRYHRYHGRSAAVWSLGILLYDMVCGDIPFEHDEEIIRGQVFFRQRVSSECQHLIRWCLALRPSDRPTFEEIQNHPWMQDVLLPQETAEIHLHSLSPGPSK
Description: Human Pim1 and Pim2 kinase in vitro inhibition assays
Evaluation of the effects of compounds on the activity of the human Pim1 and Pim2 kinases were quantified by measuring the phosphorylation of the substrate Ulight-
CREBtide ([sequence]) using either Pim1 or Pim2 human recombinant enzymes expressed in insect cells and the LANCE® detection method 18,19.
The test compound, reference compound or water (control) are mixed with either Pim1 (4.08 ng) or Pim2 (6.36 ng) enzymes in a buffer containing 40 mM Hepes/Tris (pH 7.4), 0.8 mM EGTA/Tris, 8 mM MgCl2, 1.6 mM DTT and 0.008% Tween 20.
Thereafter, the reaction is initiated by adding 25 nM of the substrate Ulight-CREBtide
([sequence]) and ATP (30 µM for Pim1 and 3 µM for Pim2), and the mixture is incubated for 60 min at room temperature. […] After 60 more min, the fluorescence transfer is measured at λex=337 nm, λem=620 nm and λem=665 nm using a microplate reader (Envision, Perkin Elmer).

human CDK9 kinase = molecular target: T4, human CDK9 kinase (Homo sapiens, UniProt P50750); test: Human CDK9 kinase in vitro inhibition assay (Cerep, LANCE); type: biochemical; conditions: human recombinant enzyme, 10 µM ATP
T4 construct: purchased Cerep (CRO that ran the assay) 2912 (781-cdk9); host or cells: Sf9 cells
T4 sequence (P50750 whole entry): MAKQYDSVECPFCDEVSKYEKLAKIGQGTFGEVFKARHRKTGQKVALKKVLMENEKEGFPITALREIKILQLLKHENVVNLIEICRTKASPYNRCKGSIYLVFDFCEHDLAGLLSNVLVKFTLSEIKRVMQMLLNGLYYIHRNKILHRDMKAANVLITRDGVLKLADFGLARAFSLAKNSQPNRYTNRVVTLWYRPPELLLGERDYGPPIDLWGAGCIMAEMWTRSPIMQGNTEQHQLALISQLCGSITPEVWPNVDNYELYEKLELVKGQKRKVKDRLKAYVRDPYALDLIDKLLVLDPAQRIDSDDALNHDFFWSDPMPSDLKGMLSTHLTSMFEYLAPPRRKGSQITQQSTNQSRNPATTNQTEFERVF
T4 sequence (O60563 whole entry partner): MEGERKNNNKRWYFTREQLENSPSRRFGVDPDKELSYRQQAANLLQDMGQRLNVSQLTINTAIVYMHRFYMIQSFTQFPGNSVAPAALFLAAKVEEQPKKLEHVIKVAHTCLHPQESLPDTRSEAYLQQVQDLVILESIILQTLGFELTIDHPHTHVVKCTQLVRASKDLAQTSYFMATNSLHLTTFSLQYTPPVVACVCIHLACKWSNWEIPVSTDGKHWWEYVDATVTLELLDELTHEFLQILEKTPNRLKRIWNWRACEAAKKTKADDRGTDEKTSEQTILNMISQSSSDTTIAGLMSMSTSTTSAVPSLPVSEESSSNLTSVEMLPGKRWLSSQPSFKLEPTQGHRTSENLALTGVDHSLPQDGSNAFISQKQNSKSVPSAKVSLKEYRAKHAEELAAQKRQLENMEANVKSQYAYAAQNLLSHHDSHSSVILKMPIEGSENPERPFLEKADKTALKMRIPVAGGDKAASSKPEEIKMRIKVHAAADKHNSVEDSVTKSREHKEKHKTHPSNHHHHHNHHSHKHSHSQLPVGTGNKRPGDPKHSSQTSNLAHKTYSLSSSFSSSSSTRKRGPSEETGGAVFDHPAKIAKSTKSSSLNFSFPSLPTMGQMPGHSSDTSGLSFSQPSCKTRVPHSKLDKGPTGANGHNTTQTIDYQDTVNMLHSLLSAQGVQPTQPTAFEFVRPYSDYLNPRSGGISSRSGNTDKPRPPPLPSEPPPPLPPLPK
Description: as §1
Human CDK9 kinase in vitro inhibition assay
All details for the CDK9 in vitro assay can be consulted in the Cerep Catalogue available online under references 2912 (781-cdk9): http://www.cerep.fr/cerep/users/pages/catalog/Affiche_CondExp_Test.asp?test=2912 Evaluation of the effects of compounds on the activity of the human CDK9 quantified by measuring the phosphorylation of the substrate Ulight- […]
mixture is incubated for 90 min at room temperature. […] After 60 more min, the fluorescence transfer is measured at λex=337 nm, λem=620 nm and λem=665 nm using a microplate reader (Envision, Perkin Elmer). The enzyme activity is determined by dividing the signal measured at λem=665 nm by that measured at λem=620 nm (ratio). The results are expressed as a percent inhibition of the control enzyme activity. The standard inhibitory reference compound is staurosporine, which is tested in each experiment at several concentrations to obtain an inhibition curve from which its IC50 value is calculated. […]

[1] = 50 mg single daily dose; cited from earlier work
PIM1 kinase = molecular target: PIM1 kinase; set-up: method as in PMID 23025350; conditions: cited from earlier work

NC(=O)c1cccc2[nH]c(-c3ccc(O)cc3)nc12 [Nu1085]
IC50 (S6K1 kinase): 0.56 µM

O=C(c1cc(Cc2n[nH]c(=O)c3ccccc23)ccc1F)N1CCN(C(=O)C2CC2)CC1 [olaparib]
inhibition of DYRK1A (in words) (human DYRK1A kinase): not inhibited
inhibition of CDK1 (in words) (human CDC2/CDK1): not inhibited
affinity for the 16 protein kinases tested (16 protein kinases): does not inhibit any; also recorded: no relevant affinities
effect on STAT3 phosphorilation (STAT3 phosphorilation): do not affect the phosphorilation state of STAT3

O=C1CCCN1Cc1ccc2c(c1)[nH]c(=O)c1cccn12 [CHEMBL539474]
Ki (PARP-1): 0.698 µM

C[C@]1(c2nc3c(C(N)=O)cccc3[nH]2)CCCN1 [veliparib]
IC50 (human PIM1 kinase): 17 µM
inhibition of DYRK1A (in words) (human DYRK1A kinase): not inhibited
inhibition of CDK1 (in words) (human CDC2/CDK1): not inhibited
IC50 (human CDK9 kinase): 8.2 µM
effect on STAT3 phosphorilation (STAT3 phosphorilation): do not affect the phosphorilation state of STAT3
highest peak plasma concentration [1]: around 1 µM

CN(C)CC(=O)Nc1ccc2[nH]c(=O)c3ccccc3c2c1 [PJ34]
IC50 (PIM1 kinase): 3.7 µM
